Tests used:
[1] = AUC (0-t) in healthy human at 50 mg administered as single dose suspension; assay type: ADME, organism-based; conditions: plasma
[2] = test system: Homo sapiens; experiment: Toxicity in healthy human assessed as incidence of drug related incidence of pruritis at 50 mg, qd for 10 days administered as suspension measured after last dose; assay type: organism-based; conditions: in vivo, 240 h
[3] = Apparent oral clearance in healthy human at 5 mg administered as single dose suspension; assay type: ADME, organism-based; conditions: in vivo
[4] = Tmax in healthy human at 25 mg administered as single dose suspension; assay type: ADME, organism-based; conditions: in vivo
[5] = Half life in healthy human at 5 mg administered as single dose suspension; assay type: ADME, organism-based; conditions: in vivo
[6] = Tmax in healthy human at 50 mg administered as single dose suspension; assay type: ADME, organism-based; conditions: in vivo
[7] = Half life in healthy human at 2 mg administered as single dose suspension; assay type: ADME, organism-based; conditions: in vivo
[8] = Cmax in healthy human at 100 mg administered as single dose suspension; assay type: ADME, organism-based; design: dose 100 mg; conditions: in vivo
[9] = Drug level in healthy human at 50 mg, qd for 10 days administered as suspension measured after last dose; assay type: ADME, organism-based; conditions: in vivo, read-out: Drug uptake
[10] = test system: Homo sapiens; experiment: Toxicity in healthy human assessed as incidence of drug related incidence of head ache at 10 mg administered as single dose suspension; assay type: organism-based; conditions: in vivo
[11] = Tmax in healthy human at 5 mg administered as single dose suspension; assay type: ADME, organism-based; conditions: in vivo
[12] = AUC (0-infinity) in healthy human at 5 mg administered as single dose suspension; assay type: ADME, organism-based; design: dose 5 mg, time infinity; conditions: plasma
[13] = AUC (0-infinity) in healthy human at 25 mg administered as single dose suspension; assay type: ADME, organism-based; design: dose 25 mg, time infinity; conditions: plasma
[14] = Tmax in healthy human at 100 mg administered as single dose suspension; assay type: ADME, organism-based; conditions: in vivo
[15] = AUC (0-t) in healthy human at 25 mg administered as single dose suspension; assay type: ADME, organism-based; conditions: plasma
[16] = Half life in healthy human at 100 mg administered as single dose suspension; assay type: ADME, organism-based; conditions: in vivo
[17] = Cmax in healthy human at 10 mg administered as single dose suspension; assay type: ADME, organism-based; design: dose 10 mg; conditions: in vivo
[18] = AUC (0-t) in healthy human at 2 mg administered as single dose suspension; assay type: ADME, organism-based; conditions: plasma
[19] = AUC (0-infinity) in healthy human at 10 mg administered as single dose suspension; assay type: ADME, organism-based; design: dose 10 mg, time infinity; conditions: plasma
[20] = Cmax in healthy human at 25 mg administered as single dose suspension; assay type: ADME, organism-based; design: dose 25 mg; conditions: in vivo
[21] = Drug level at 24 hrs in healthy human at 10 mg administered as single dose suspension; assay type: ADME, organism-based; conditions: in vivo, read-out: Drug uptake
[22] = test system: Homo sapiens; experiment: Toxicity in healthy human assessed as incidence of adverse events at 10 to 50 mg, qd for 10 days administered as suspension measured after last dose; assay type: organism-based; conditions: in vivo, 240 h
[23] = test system: Homo sapiens; experiment: Toxicity in healthy human assessed as incidence of drug related incidence of somnolence at 50 mg administered as single dose suspension; assay type: organism-based; conditions: in vivo
[24] = Cmax in healthy human at 10 mg, qd for 10 days administered as suspension measured after last dose; assay type: ADME, organism-based; design: dose 10 mg; conditions: in vivo
[25] = test system: Homo sapiens; experiment: Toxicity in healthy human assessed as incidence of drug related incidence of somnolence at 2 mg administered as single dose suspension; assay type: organism-based; conditions: in vivo
[26] = Drug level in healthy human at 10 mg, qd for 10 days administered as suspension measured after last dose; assay type: ADME, organism-based; conditions: in vivo, read-out: Drug uptake
[27] = test system: Homo sapiens; experiment: Toxicity in healthy human assessed as incidence of drug related incidence of somnolence at 100 mg administered as single dose suspension; assay type: organism-based; conditions: in vivo
[28] = test system: Homo sapiens; experiment: Toxicity in healthy human assessed as incidence of drug related incidence of somnolence at 10 mg administered as single dose suspension; assay type: organism-based; conditions: in vivo
[29] = test system: Homo sapiens; experiment: Toxicity in healthy human assessed as incidence of drug related incidence of somnolence at 5 mg administered as single dose suspension; assay type: organism-based; conditions: in vivo
[30] = AUC (0-tau) in healthy human at 25 mg, qd for 10 days administered as suspension measured after last dose; assay type: ADME, organism-based; conditions: plasma
[31] = Apparent oral clearance in healthy human at 50 mg administered as single dose suspension; assay type: ADME, organism-based; conditions: in vivo
[32] = AUC (0-infinity) in healthy human at 2 mg administered as single dose suspension; assay type: ADME, organism-based; design: dose 2 mg, time infinity; conditions: plasma
[33] = Cmax in healthy human at 25 mg, qd for 10 days administered as suspension measured after last dose; assay type: ADME, organism-based; design: dose 25 mg; conditions: in vivo
[34] = test system: Homo sapiens; experiment: Toxicity in healthy human assessed as incidence of drug related incidence of headache at 25 mg, qd for 10 days administered as suspension measured after last dose coadministered with 3 mg CYP3A4 probe midazolam; assay type: organism-based; conditions: in vivo, 240 h
[35] = test system: Homo sapiens; experiment: Toxicity in healthy human assessed as incidence of drug related incidence of pharyngolaryngeal pain at 50 mg, qd for 10 days administered as suspension measured after last dose; assay type: organism-based; conditions: in vivo, 240 h
[36] = Drug level at 24 hrs in healthy human at 2 mg administered as single dose suspension; assay type: ADME, organism-based; conditions: in vivo, read-out: Drug uptake
[37] = Drug level at 24 hrs in healthy human at 25 mg administered as single dose suspension; assay type: ADME, organism-based; conditions: in vivo, read-out: Drug uptake
[38] = Apparent oral clearance in healthy human at 25 mg administered as single dose suspension; assay type: ADME, organism-based; conditions: in vivo

## C[C@@H]1CCO[C@H]2Cn3cc(C(=O)NCc4ccc(F)cc4F)c(=O)c([O-])c3C(=O)N12.[Na+] [DOLUTEGRAVIR SODIUM]
[1]
  AUC(0-t): 70.8 µg·h/mL
[2]
  Activity: 22%
[3]
  CL/F: 9.33 mL/min
[4]
  Tmax: 0.75 h
[5]
  half-life: 14.3 h
[6]
  Tmax: 1.25 h
[7]
  half-life: 12.7 h
[8]
  Cmax: 8.14 µg/mL
[9]
  concentration at 240 h: 1.64 µg/mL
[10]
  Activity: 13%
[11]
  Tmax: 0.5 h
[12]
  AUC(0-inf): 8.87 µg·h/mL
[13]
  AUC(0-inf): 35.1 µg·h/mL
[14]
  Tmax: 1 h
[15]
  AUC(0-t): 34.3 µg·h/mL
[16]
  half-life: 14.7 h
[17]
  Cmax: 1.23 µg/mL
[18]
  AUC(0-t): 2.63 µg·h/mL
[19]
  AUC(0-inf): 14.6 µg·h/mL
[20]
  Cmax: 2.76 µg/mL
[21]
  concentration at 24 h: 0.196 µg/mL
[22]
  Activity: Non-toxic
[23]
  Activity: 33%
[24]
  Cmax: 1.47 µg/mL
[25]
  Activity: 0%
[26]
  concentration at 240 h: 0.35 µg/mL
[27]
  Activity: 0%
[28]
  Activity: 0%
[29]
  Activity: 0%
[30]
  AUC tau at 240 h: 38.4 µg·h/mL
[31]
  CL/F: 11.3 mL/min
[32]
  AUC(0-inf): 2.78 µg·h/mL
[33]
  Cmax: 3.09 µg/mL
[34]
  Activity: 0%
[35]
  Activity: 11%
[36]
  concentration at 24 h: 0.0382 µg/mL
[37]
  concentration at 24 h: 0.469 µg/mL
[38]
  CL/F: 11.8 mL/min

From ChEMBL document CHEMBL1212763, “Pharmacokinetics and safety of S/GSK1349572, a next-generation HIV integrase inhibitor, in healthy volunteers” (Antimicrob Agents Chemother, 2010)
